# Experimental data as given in ChEMBL document CHEMBL1201862, “PubChem BioAssay data set” (2004).
#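 Each compound was tested at five concentrations against cells in 96-well plates for 48 hours. GI50 = concentration required for 50% inhibition of growth.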 Active and inactive are the calls of the source. No stated cut-off is given here; in the data, active = GI50 up to about 1.1 µM and inactive = higher.
# Legend:
# Experiment in all cases: DTP human tumour cell line panel, 48 h
# 786-0 = system: 786-0
# DU-145 = system: DU-145
# Hs-578T = system: Hs-578T
# MDA-MB-231 = system: MDA-MB-231
# DMS-273 = system: DMS-273
# LXFL 529 = system: LXFL 529
# RXF 631 = system: RXF 631
# SNB-78 = system: SNB-78
# DMS-114 = system: DMS-114
Structure (SMILES),GI50 (786-0),GI50 (DU-145),GI50 (Hs-578T),GI50 (MDA-MB-231),GI50 (DMS-273),GI50 (LXFL 529),GI50 (RXF 631),GI50 (SNB-78),GI50 (DMS-114)
CC(C)NC(=O)CN1CCN(C2=C(Cl)C(=O)c3c(O)ccc(O)c3C2=O)CC1,2.56 µM (inactive),2.71 µM (inactive),2.39 µM (inactive),1.97 µM (inactive),,,,,
NC(CCCCCCCCCCP(=O)(O)O)C(=O)O (stereo not drawn),,> 100 µM (inactive),> 100 µM (inactive),> 100 µM (inactive),,,,,
O=C(O)/C(Cc1ccnc2ccccc12)=N\O,> 100 µM (inactive),> 100 µM (inactive),> 100 µM (inactive),> 100 µM (inactive),,,,,
CC1Oc2c(c(O)cc3oc(=O)cc(-c4ccccc4)c23)C(=O)C1C (stereo not drawn),,,,,> 100 µM (inactive),> 100 µM (inactive),> 100 µM (inactive),> 100 µM (inactive),
OC1(c2ccccc2)CC2CCC(C1)N2CCc1ccccc1 (stereo not drawn),> 100 µM (inactive),48.4 µM (inactive),5.27 µM (inactive),73.6 µM (inactive),,,,,
CN1c2ccccc2C(=O)NC12CCN(CCCC(=O)c1ccc(F)cc1)CC2,74.3 µM (inactive),> 100 µM (inactive),> 100 µM (inactive),40.9 µM (inactive),,,,,
Cc1cc(C)cc(Sc2c([N+](=O)[O-])ncn2C)c1,24 µM (inactive),,,,8.09 µM (inactive),7.83 µM (inactive),16 µM (inactive),13.6 µM (inactive),12.2 µM (inactive)
Cc1ccc(S(=O)(=O)N(CC(=O)O)c2ccccc2)cc1,> 100 µM (inactive),,,,> 100 µM (inactive),> 100 µM (inactive),,,
C1CC2=C(C1)[Se]C(=C1Sc3nsnc3S1)[Se]2,> 100 µM (inactive),> 100 µM (inactive),> 100 µM (inactive),> 100 µM (inactive),,,,,
O=[N+]([O-])c1ccccc1C1SCc2nc3ccccc3n21 (stereo not drawn),> 100 µM (inactive),,,,> 100 µM (inactive),92.9 µM (inactive),93.1 µM (inactive),,66.2 µM (inactive)
COC(=O)C1=C(C)N2CCOC2(C)C(C(=O)OC)C1c1ccc[nH]1 (stereo not drawn),,,,,,> 100 µM (inactive),,,> 100 µM (inactive)
O=C1OC(c2ccccc2)=N/C1=C\c1ccc(Oc2ccc(Cl)c(Cl)c2)cc1,29.9 µM (inactive),,,,,25.6 µM (inactive),,25.9 µM (inactive),15.4 µM (inactive)
CN1CCN(c2cc(-c3cc4ccccc4o3)oc(=O)c2C#N)CC1,,,,,57.9 µM (inactive),81.7 µM (inactive),41.4 µM (inactive),> 100 µM (inactive),69.2 µM (inactive)
COc1cccc(C2C(C(=O)O)=C(CO)Oc3cc4c(cc32)OCO4)c1OC (stereo not drawn),,,,,,> 100 µM (inactive),> 100 µM (inactive),> 100 µM (inactive),
C=C1C(=O)O[C@H]2[C@H]1[C@@H](OC(=O)C=C(C)C)CC1=C[C@@H](C[C@@]3(C)O[C@@H]23)OC1=O,,,,,1.61 µM (inactive),,,,
CCOC(=O)Cn1c(=O)c2cc(C)cc3c(Cl)nc4c(OC)c(OC)cc1c4c32,29.7 µM (inactive),> 100 µM (inactive),31.8 µM (inactive),> 100 µM (inactive),,,,,
CCOc1ccc2nc(NC(=O)C(=O)C3C(=O)C(CC4C(=O)c5ccccc5C4=O)C(=O)CC3(C)C)sc2c1 (stereo not drawn),> 100 µM (inactive),> 100 µM (inactive),> 100 µM (inactive),24 µM (inactive),,,,,
CC(C)(C)[Si](C)(C)OCC1OC(n2cnc3c(N)ncnc32)CC1OS(C)(=O)=O (stereo not drawn),,> 100 µM (inactive),,22.1 µM (inactive),,,,,

Structure (SMILES),GI50 (786-0),GI50 (DU-145),GI50 (Hs-578T),GI50 (MDA-MB-231),GI50 (DMS-273),GI50 (LXFL 529),GI50 (RXF 631),GI50 (SNB-78),GI50 (DMS-114)
CC#CS(=O)(=O)c1ccccc1,3.43 µM (inactive),2.82 µM (inactive),17.2 µM (inactive),10.6 µM (inactive),,,,,
COc1cc(CCCOC2OC(COC3OCC(O)C(O)C3O)C(O)C(O)C2O)cc2cc(-c3ccc4c(c3)OCO4)oc12 (stereo not drawn),,,,,> 175 µM (inactive),,,> 175 µM (inactive),> 175 µM (inactive)
COC(=O)c1cc(NC2OCC(OC(C)=O)C(OC(C)=O)C2OC(C)=O)nc(SC)c1C(=O)OC (stereo not drawn),> 100 µM (inactive),> 100 µM (inactive),> 100 µM (inactive),> 100 µM (inactive),,,,,
CC(=O)OC(C)(C)/C=C/C(=O)[C@](C)(O)[C@H]1[C@H](O)C[C@@]2(C)[C@@H]3CC=C4[C@@H](C[C@H](O)C(=O)C4(C)C)[C@]3(CO)C(=O)C[C@]12C [CUCURBITACIN A],0.316 µM (active),,,,0.149 µM (active),0.34 µM (active),,0.33 µM (active),0.483 µM (active)
NC1=C(C(=O)O)C(=O)C(Nc2c(O)cccc2C(=O)O)=CC1=O,> 100 µM (inactive),,,,> 100 µM (inactive),> 100 µM (inactive),> 100 µM (inactive),> 100 µM (inactive),> 100 µM (inactive)
CC1=C(C)[C@@]2(C)O[C@@]2(C)O[C@@]2(C)O[C@@]12C,,> 100 µM (inactive),> 100 µM (inactive),> 100 µM (inactive),,,,,
CC1CCC2N(C1)CC1C3(O)CC45OC6(O)C(O)CCC4(C)C6CCC5C3(O)CC(O)C1(O)C2(C)O (stereo not drawn),> 100 µM (inactive),> 100 µM (inactive),> 100 µM (inactive),> 100 µM (inactive),,,,,
Cc1cc(S(=O)(=O)Nc2nc(Nc3ccccc3)n[nH]2)c(SSc2cc(Cl)c(C)cc2S(=O)(=O)Nc2nc(Nc3ccccc3)n[nH]2)cc1Cl,,> 100 µM (inactive),86.1 µM (inactive),32.2 µM (inactive),,,,,
CC(=O)OC1CC2(O)C(CCC3(C)C(c4ccc(=O)oc4)CCC32O)C2(C)C1=CC(O)C1OC12 (stereo not drawn),,,,,0.04 µM (active),,,0.0442 µM (active),0.025 µM (active)
C=CCc1cccc(/C=N\N/C(N)=N/O)c1O,,,,,3.05 µM (inactive),,,21.5 µM (inactive),2.28 µM (inactive)
COC(=S)OC1CC(n2cnc3c(N)ncnc32)OC1CO[Si](C)(C)C(C)(C)C (stereo not drawn),,16.8 µM (inactive),,18.8 µM (inactive),,,,,
COc1nc2cccc(C(O)c3ccccc3)c2nc1-c1ccccc1 (stereo not drawn),,5.93 µM (inactive),2.28 µM (inactive),8.41 µM (inactive),,,,,
COc1cccc2c1C(=O)c1c(O)c3c(c(O)c1C2=O)C[C@@](O)(C(=O)CO)C[C@@H]3OC1CC(N2CCOCC2)C(O)C(C)O1 (stereo partly drawn),,0.0497 µM (active),0.0249 µM (active),0.0551 µM (active),0.00409 µM (active),,,0.0025 µM (active),0.0025 µM (active)
O=C(OCc1ccccc1)C(Cc1ccccc1)N(Cc1ccccc1)Cc1ccccc1 (stereo not drawn),,,,,44.6 µM (inactive),21.9 µM (inactive),,> 100 µM (inactive),7.5 µM (inactive)
COC(=O)[C@@H]1C=C[C@H](NC(C)=O)C1,,> 100 µM (inactive),> 100 µM (inactive),> 100 µM (inactive),,,,,
COC(=O)c1ccccc1/N=C(/NC1CCCCCC1)NS(=O)(=O)c1ccc(C)cc1,> 100 µM (inactive),58.6 µM (inactive),> 100 µM (inactive),76.9 µM (inactive),,,,,
O=[N+]([O-])c1ccccc1S(=O)(=O)c1cccc2c1NCCC2,> 100 µM (inactive),60.5 µM (inactive),51.1 µM (inactive),> 100 µM (inactive),,,,,
O=P1(c2ccccc2)Nc2ccccc2SSc2ccccc2N1,,,,,17.4 µM (inactive),,,24.2 µM (inactive),19.5 µM (inactive)
